In PMC4157337 (Peptides, 2013):
Values belong to the compound of their own block, whether it stands above or below them.

Experiments:
[1] = system: Ang-(1-7) peptidase (CSF); experiment: Inhibitor profile: [125I]-Ang-; type: biochemical, sheep; details: text to Figure 1D-F; pooled CSF
[2] = biological target: TOP (thimet oligopeptidase); details: cited from earlier work
neurolysin = details: cited from earlier work
[3] = system: Ang-(1-7) peptidase (CSF); details: sheep CSF, earlier study; cited from earlier work
neprilysin = details: no reference given; quoted as known selective inhibitor; cited from earlier work
[4] = cited from earlier work
[5] = system: Ang-(1-7) peptidase (CSF); experiment: pH profile of [125I]-Ang-; type: biochemical, sheep; details: pH 5 to 8.5; N = 3
[6] = system: Ang-(1-7) peptidase (CSF); experiment: Peptidase kinetics; type: biochemical; details: sheep CSF, control and BMX; product [125I]-Ang-(1-4)
[7] = system: Ang-(1-7) peptidase (CSF); experiment: Competition of peptides for conversion of [125I]-Ang-; details: pooled CSF, inhibitor cocktail, 120 min, 37°C; Figure 4

attenuation of metabolism of Ang-(1-7) to Ang-(1-4), in words [1]: failed to attenuate
Compound: 1-carboxy-3-phenyl-propyl (Ala-Ala-Phe-4-Abz-OH [CFP]
Ki [2]: 180 nM | Ki (neurolysin): 4000 nM

Compound: O=C(O)c1cc[c]([Hg][Cl])cc1 [PCMB, p-chloromercuribenzoic acid]
conversion of Ang-(1-7) to Ang-(1-4) in CSF, in words [3]: abolished

attenuation of metabolism of Ang-(1-7) to Ang-(1-4), in words [1]: failed to attenuate
Compound: O=C(O)C(O)CNC(=O)[C@H](Cc1ccccc1)NC(CCc1ccccc1)C(=O)O (stereo partly drawn) [SCH39370]
Ki (neprilysin): 11 nM

Compound: C[C@H]1C[C@H]2[C@@H]3CCC4=CC(=O)C=C[C@]4(C)[C@@]3(F)[C@@H](O)C[C@]2(C)[C@@]1(O)C(=O)CO [betamethasone]
ACE2 activity in renal cortex, isolated tubules and urine, in words ([4]; BMX sheep): lower | ACE2 activity in the circulation, in words ([4]; adult BMX offspring): decreased | soluble ACE activity in the circulation, in words ([4]; adult BMX offspring): increased | MAP, in words ([4]; antenatal exposure, by 6 months of age): elevated MAP | baroreflex sensitivity (BRS), in words ([4]; antenatal exposure, by 6 weeks): decreased BRS

attenuation of metabolism of Ang-(1-7) to Ang-(1-4), in words [1]: failed to attenuate
Compound: Pro-Ile
Ki (neurolysin): 90000 nM | sensitivity of neurolysin forms to inhibition, in words (neurolysin; cytosolic and mitochondrial forms): sensitive to Pro-Ile inhibition

conversion in BMX versus control CSF, in words [5]: higher activity than the control | site of hydrolysis [6]: Tyr^4-Ile^5 bond
Compound: [^125I]-Ang-(1-7): iodinated Ang-(1-7), substrate; chloramine T method

extent of inhibition of enzyme activity over the concentration range [7]: 15% | extent of inhibition of enzyme activity, in words [7]: poor competitor
Compound: neurotensin
